Data taken from the NIST ThermoML archive (doi:10.1016/j.fluid.2016.10.004).

Details: for mass density: 100 kPa, Liquid, buoyancy

CCC[n+]1ccccc1C.O=S(=O)([N-]S(=O)(=O)C(F)(F)F)C(F)(F)F
surface tension liquid-gas [mN/m]
Details | Ring tensiometer | Wilhelmy plate
264.98 K | 37.98 | –
274.35 K | 37.65 | –
278.08 K | 37.48 | –
283.24 K | 37.32 | –
283.37 K | – | 36.98
288.21 K | 37.06 | –
288.25 K | – | 36.82
293.4 K | 36.9 | –
293.42 K | – | 36.65
298.31 K | 36.64 | 36.5
302.93 K | 36.45 | –
303.05 K | – | 36.31
307.78 K | 36.29 | –
307.82 K | – | 36.11
312.97 K | 36.07 | 35.95
318.38 K | – | 35.76
318.39 K | 35.83 | –
322.88 K | – | 35.52
322.94 K | 35.54 | –
328.34 K | 35.29 | 35.32
333.16 K | 35.03 | 35.12
337.5 K | 34.74 | –
337.93 K | – | 34.92
343.2 K | – | 34.77
343.21 K | 34.63 | –
347.6 K | – | 34.53
347.65 K | 34.27 | –
353.02 K | 34.14 | 34.38
359.26 K | – | 34.14
359.32 K | 33.83 | –
363.55 K | – | 33.94
363.67 K | 33.73 | –

Details | mass density [kg/m3]
274.36 K | 1487.31
278.09 K | 1484.28
283.39 K | 1478.78
288.24 K | 1473.7
293.42 K | 1468.58
298.29 K | 1464.23
303.1 K | 1459.95
307.9 K | 1454.39
313.05 K | 1449.74
318.4 K | 1444.8
322.98 K | 1440.18
328.44 K | 1435.36
333.33 K | 1430.49
338.04 K | 1426.36
343.34 K | 1421.49
347.7 K | 1417.08
353.28 K | 1412.49
359.15 K | 1407.9
363.7 K | 1403.29

CCC[n+]1ccccc1.O=S(=O)([N-]S(=O)(=O)C(F)(F)F)C(F)(F)F [1-propylpyridinium bis((trifluoromethyl)sulfonyl)amide]
Details | surface tension liquid-gas [mN/m]
318.35 K, Wilhelmy plate | 34.52
318.38 K, Ring tensiometer | 34.67
322.86 K, Wilhelmy plate | 34.29
322.89 K, Ring tensiometer | 34.46
328.15 K, Wilhelmy plate | 34.02
328.19 K, Ring tensiometer | 34.21
333.17 K, Wilhelmy plate | 33.75
333.21 K, Ring tensiometer | 33.97
338 K, Wilhelmy plate | 33.56
338.03 K, Ring tensiometer | 33.8
343.1 K, Wilhelmy plate | 33.35
343.11 K, Ring tensiometer | 33.56
347.59 K, Ring tensiometer | 33.34
347.63 K, Wilhelmy plate | 33.13
353.31 K, Wilhelmy plate | 32.87
353.34 K, Ring tensiometer | 33.1
358.35 K, Wilhelmy plate | 32.64
358.37 K, Ring tensiometer | 32.82
362.09 K, Wilhelmy plate | 32.43
362.18 K, Ring tensiometer | 32.61

Details | mass density [kg/m3]
318.41 K | 1468.8
323.02 K | 1464.45
328.3 K | 1459.61
333.28 K | 1454.58
338.11 K | 1450.05
343.18 K | 1445.34
347.36 K | 1440.68
353.35 K | 1435.49
357.87 K | 1430.78
362.15 K | 1426.55

CCC[n+]1cccc(C)c1.O=S(=O)([N-]S(=O)(=O)C(F)(F)F)C(F)(F)F
surface tension liquid-gas [mN/m]
Details | Ring tensiometer | Wilhelmy plate
264.14 K | 36.35 | –
268.06 K | 36.23 | –
273.39 K | 36.1 | –
273.45 K | – | 35.78
278.42 K | 35.88 | 35.59
283.19 K | 35.6 | –
283.2 K | – | 35.41
288.5 K | 35.39 | –
288.67 K | – | 35.22
292.92 K | 35.23 | –
292.99 K | – | 35.06
298.42 K | 35.03 | –
298.44 K | – | 34.88
303.1 K | 34.83 | –
303.12 K | – | 34.68
308.03 K | 34.64 | –
308.04 K | – | 34.53
312.72 K | – | 34.29
312.75 K | 34.39 | –
318.22 K | 34.12 | –
318.25 K | – | 34.08
323.19 K | – | 33.91
323.23 K | 33.95 | –
328.11 K | 33.69 | 33.65
333.15 K | – | 33.46
333.21 K | 33.43 | –
339.21 K | – | 33.18
339.28 K | 33.18 | –
342.59 K | 33.03 | –
342.65 K | – | 33.08
347.77 K | – | 32.85
347.91 K | 32.78 | –
352.59 K | – | 32.7
352.62 K | 32.49 | –

Details | mass density [kg/m3]
264.25 K | 1481.37
268.17 K | 1476.75
273.62 K | 1471.18
278.64 K | 1466.69
283.23 K | 1461.95
288.58 K | 1456.8
293 K | 1452.82
298.44 K | 1448.15
303.17 K | 1443.76
308.13 K | 1438.23
312.76 K | 1433.63
318.32 K | 1428.63
323.28 K | 1423.98
328.19 K | 1419.2
333.31 K | 1414.52
339.09 K | 1409.83
342.77 K | 1406.02
348.02 K | 1401
352.77 K | 1396.52
358.08 K | 1391.47
363.28 K | 1386.7

CCC[n+]1ccc(C)cc1.O=S(=O)([N-]S(=O)(=O)C(F)(F)F)C(F)(F)F
Details | mass density [kg/m3]
268.1 K | 1482.1
278.71 K | 1469.95
283.45 K | 1465.84
288.19 K | 1461.42
293.46 K | 1456.03
298.38 K | 1450.93
303.12 K | 1446.6
308.24 K | 1440.93
313.15 K | 1435.96
318.2 K | 1431.59
323.16 K | 1426.43
328.14 K | 1421.84
333.57 K | 1416.94
338.25 K | 1412.36
343.8 K | 1407.53
348.11 K | 1402.8
353.25 K | 1398.13
357.74 K | 1394
362.63 K | 1389.16

surface tension liquid-gas [mN/m]
Details | Ring tensiometer | Wilhelmy plate
288.19 K | 35.82 | –
288.22 K | – | 35.61
293.49 K | 35.56 | 35.39
298.37 K | 35.36 | 35.2
303.11 K | 35.17 | –
303.12 K | – | 35
308.15 K | 34.96 | –
308.17 K | – | 34.85
313.06 K | 34.66 | 34.65
318.14 K | – | 34.48
318.15 K | 34.46 | –
323.06 K | – | 34.25
323.07 K | 34.23 | –
327.97 K | 33.95 | –
328 K | – | 34.04
332.97 K | 33.7 | –
333.36 K | – | 33.79
338.08 K | – | 33.6
338.17 K | 33.44 | –
343.75 K | – | 33.43
343.8 K | 33.2 | –
347.87 K | – | 33.2
348.11 K | 32.98 | –
353.29 K | – | 33.01
353.47 K | 32.7 | –
357.58 K | – | 32.83
357.72 K | 32.42 | –
362.45 K | – | 32.61
362.65 K | 32.22 | –
